Measurements published in publication PMC6458995, “MAP4K4 Inhibition Promotes Survival of Human Stem Cell-Derived Cardiomyocytes and Reduces Infarct Size In Vivo” (Cell Stem Cell, 2019).

What was measured:
Experiment in all cases: Dundee kinase panel
Format in all cases: biochemical
Conditions in all cases: for remaining activity at 1 µM: read-out: residual activity
[1] = biological target: T1, CAMKKb (Homo sapiens, UniProt Q96RR4)
T1 construct: lines 1-140) and Reaction Biology
Procedure: (§1) Compounds were screened at 1 μM. For key hits, pIC50 values were then determined by HTRF as above. […] Stability in mouse and human liver microsomes was determined by Cyprotex.

[2] = biological target: T2, CK1δ (Homo sapiens, UniProt P48730)
T2 construct: lines 1-140) and Reaction Biology
Procedure: as §1

[3] = biological target: T3, CK2 (Homo sapiens, UniProt P68400)
T3 construct: lines 1-140) and Reaction Biology
Procedure: as §1

[4] = biological target: T4, EIF2AK3 (Homo sapiens, UniProt Q9NZJ5)
T4 construct: lines 1-140) and Reaction Biology
T4 sequence (Q9NZJ5 30-1116): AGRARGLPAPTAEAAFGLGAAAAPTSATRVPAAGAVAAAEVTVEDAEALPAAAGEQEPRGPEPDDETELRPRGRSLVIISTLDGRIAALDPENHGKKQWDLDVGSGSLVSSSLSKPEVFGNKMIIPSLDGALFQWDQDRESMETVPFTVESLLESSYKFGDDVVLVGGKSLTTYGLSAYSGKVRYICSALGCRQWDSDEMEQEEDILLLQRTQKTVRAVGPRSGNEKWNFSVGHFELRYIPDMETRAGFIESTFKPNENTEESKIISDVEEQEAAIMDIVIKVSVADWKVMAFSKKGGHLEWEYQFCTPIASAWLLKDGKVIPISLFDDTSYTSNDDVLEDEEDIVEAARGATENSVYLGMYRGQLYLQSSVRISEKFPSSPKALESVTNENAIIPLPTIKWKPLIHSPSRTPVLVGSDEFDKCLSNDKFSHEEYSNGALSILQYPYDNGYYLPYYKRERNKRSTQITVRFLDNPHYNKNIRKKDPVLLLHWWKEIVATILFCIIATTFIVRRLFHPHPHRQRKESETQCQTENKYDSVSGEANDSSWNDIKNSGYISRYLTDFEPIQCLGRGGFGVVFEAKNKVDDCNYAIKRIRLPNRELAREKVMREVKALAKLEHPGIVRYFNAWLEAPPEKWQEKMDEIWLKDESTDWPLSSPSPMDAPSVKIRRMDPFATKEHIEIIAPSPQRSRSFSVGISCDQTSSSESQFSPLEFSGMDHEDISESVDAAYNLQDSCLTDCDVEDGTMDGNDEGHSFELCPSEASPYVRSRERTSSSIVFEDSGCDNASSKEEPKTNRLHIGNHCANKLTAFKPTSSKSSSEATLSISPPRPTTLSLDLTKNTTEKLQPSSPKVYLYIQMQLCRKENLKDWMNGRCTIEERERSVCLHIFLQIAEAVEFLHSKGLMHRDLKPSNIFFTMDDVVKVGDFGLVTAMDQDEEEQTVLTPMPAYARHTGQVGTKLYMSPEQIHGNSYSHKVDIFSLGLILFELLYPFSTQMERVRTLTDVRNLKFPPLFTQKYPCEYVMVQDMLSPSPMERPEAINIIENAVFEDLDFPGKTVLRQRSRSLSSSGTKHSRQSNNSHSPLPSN
Procedure: as §1

[5] = biological target: T5, PKD1 (Homo sapiens, UniProt Q15139)
T5 construct: lines 1-140) and Reaction Biology
T5 sequence (Q15139 1-912): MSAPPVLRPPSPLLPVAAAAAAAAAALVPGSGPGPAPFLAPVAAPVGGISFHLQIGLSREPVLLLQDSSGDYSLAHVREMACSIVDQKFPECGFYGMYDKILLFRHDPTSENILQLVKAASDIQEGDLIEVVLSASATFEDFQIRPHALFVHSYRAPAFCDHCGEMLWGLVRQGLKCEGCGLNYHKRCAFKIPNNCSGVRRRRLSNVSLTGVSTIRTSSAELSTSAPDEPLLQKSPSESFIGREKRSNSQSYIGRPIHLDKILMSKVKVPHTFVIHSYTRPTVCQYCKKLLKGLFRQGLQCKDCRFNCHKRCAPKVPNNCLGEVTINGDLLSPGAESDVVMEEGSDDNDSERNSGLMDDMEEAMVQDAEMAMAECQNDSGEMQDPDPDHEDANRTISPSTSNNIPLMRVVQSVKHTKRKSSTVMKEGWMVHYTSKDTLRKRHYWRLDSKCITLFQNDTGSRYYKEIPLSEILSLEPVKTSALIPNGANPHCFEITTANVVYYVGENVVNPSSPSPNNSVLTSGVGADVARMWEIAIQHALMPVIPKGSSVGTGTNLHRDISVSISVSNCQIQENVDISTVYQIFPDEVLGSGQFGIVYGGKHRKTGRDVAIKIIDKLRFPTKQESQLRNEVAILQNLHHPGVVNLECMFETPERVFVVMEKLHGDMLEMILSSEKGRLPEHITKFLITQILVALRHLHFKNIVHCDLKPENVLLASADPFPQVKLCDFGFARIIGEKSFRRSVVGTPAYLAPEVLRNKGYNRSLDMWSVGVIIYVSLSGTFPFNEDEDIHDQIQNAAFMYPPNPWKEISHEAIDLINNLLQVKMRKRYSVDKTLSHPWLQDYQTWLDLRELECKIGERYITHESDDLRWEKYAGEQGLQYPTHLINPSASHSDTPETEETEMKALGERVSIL
Procedure: as §1

[6] = biological target: T6, RSK1 (Homo sapiens, UniProt Q15418)
T6 construct: lines 1-140) and Reaction Biology
Procedure: as §1

[7] = biological target: T7, RSK2 (Homo sapiens, UniProt P51812)
T7 construct: lines 1-140) and Reaction Biology
Procedure: as §1

[8] = biological target: T8, SGK1 (Homo sapiens, UniProt O00141)
T8 construct: lines 1-140) and Reaction Biology
T8 sequence (O00141 1-431): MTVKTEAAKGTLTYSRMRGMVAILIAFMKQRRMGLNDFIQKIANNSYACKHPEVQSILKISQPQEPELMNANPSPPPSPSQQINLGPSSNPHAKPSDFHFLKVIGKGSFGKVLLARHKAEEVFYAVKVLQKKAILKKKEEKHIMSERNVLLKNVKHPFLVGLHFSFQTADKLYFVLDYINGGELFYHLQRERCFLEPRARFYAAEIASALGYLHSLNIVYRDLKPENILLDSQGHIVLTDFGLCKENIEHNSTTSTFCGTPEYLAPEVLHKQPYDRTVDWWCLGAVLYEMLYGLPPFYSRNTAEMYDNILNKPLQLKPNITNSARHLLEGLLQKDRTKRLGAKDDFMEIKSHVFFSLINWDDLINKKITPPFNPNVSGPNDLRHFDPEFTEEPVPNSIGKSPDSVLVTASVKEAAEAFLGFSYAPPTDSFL
Procedure: as §1

[9] = biological target: T9, TRKA (Homo sapiens, UniProt P04629)
T9 construct: lines 1-140) and Reaction Biology
Procedure: as §1

T1 sequence (Q96RR4 whole entry): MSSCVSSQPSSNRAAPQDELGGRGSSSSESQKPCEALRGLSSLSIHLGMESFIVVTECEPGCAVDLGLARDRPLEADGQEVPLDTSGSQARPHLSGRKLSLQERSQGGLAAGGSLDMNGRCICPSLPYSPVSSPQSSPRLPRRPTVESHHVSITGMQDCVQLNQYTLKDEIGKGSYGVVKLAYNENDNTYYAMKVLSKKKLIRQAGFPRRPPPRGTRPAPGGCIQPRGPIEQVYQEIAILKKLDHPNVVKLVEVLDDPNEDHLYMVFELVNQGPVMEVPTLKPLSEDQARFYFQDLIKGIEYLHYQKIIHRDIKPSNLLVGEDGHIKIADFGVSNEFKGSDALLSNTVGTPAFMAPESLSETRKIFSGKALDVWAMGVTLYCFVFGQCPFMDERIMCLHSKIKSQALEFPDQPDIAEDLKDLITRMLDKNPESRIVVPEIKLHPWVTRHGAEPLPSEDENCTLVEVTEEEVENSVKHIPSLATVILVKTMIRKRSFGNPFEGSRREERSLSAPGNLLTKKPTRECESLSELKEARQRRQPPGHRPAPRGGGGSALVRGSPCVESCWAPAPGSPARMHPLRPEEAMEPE
T9 sequence (P04629 33-796): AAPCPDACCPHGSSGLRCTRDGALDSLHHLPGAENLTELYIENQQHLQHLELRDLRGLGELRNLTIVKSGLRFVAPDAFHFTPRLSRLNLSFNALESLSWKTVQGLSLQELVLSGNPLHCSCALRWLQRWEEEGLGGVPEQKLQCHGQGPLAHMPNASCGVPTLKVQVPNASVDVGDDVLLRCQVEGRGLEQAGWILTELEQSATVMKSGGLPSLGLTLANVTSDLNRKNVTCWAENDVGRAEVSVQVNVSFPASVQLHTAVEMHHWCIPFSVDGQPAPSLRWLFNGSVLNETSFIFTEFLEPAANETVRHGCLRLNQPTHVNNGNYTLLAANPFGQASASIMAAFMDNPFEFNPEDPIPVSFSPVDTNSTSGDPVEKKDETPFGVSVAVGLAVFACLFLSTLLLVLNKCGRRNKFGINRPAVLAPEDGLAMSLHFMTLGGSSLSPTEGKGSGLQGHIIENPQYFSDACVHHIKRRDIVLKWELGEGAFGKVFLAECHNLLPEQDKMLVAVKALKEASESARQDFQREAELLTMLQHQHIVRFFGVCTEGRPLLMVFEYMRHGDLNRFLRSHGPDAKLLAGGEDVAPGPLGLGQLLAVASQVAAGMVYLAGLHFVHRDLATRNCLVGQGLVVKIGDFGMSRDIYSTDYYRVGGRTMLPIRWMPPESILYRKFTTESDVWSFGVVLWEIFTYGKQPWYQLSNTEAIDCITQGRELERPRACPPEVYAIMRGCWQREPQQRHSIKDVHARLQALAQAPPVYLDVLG
T2 sequence (P48730 whole entry): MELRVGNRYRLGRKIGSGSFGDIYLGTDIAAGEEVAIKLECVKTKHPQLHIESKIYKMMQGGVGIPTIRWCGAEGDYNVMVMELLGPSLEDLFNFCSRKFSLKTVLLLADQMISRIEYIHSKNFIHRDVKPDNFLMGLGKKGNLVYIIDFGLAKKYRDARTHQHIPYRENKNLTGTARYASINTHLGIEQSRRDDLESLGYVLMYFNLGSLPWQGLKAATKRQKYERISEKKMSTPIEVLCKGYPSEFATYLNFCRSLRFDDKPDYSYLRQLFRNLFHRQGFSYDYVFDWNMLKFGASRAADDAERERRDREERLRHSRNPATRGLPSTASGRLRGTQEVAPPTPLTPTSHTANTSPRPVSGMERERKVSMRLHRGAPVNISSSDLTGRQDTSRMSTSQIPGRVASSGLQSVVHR
T7 sequence (P51812 whole entry): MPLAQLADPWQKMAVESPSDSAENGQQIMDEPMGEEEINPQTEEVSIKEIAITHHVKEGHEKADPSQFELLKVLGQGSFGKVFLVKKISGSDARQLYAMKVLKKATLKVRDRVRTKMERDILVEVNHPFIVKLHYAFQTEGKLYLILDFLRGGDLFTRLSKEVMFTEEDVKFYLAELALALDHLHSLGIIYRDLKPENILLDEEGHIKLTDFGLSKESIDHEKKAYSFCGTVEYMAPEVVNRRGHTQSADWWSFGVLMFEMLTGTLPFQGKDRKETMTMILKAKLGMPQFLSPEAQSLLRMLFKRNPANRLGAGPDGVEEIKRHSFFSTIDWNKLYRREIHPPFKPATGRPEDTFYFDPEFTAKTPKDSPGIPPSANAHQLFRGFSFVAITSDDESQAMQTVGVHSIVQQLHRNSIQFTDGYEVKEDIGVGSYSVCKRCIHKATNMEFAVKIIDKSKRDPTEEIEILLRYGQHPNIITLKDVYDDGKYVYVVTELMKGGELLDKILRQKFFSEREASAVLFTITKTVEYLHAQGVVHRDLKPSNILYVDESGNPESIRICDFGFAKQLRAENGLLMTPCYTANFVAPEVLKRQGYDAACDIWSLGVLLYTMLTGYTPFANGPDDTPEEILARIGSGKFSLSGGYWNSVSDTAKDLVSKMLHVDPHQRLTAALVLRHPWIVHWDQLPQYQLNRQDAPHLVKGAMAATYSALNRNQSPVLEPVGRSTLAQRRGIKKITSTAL
T3 sequence (P68400 whole entry): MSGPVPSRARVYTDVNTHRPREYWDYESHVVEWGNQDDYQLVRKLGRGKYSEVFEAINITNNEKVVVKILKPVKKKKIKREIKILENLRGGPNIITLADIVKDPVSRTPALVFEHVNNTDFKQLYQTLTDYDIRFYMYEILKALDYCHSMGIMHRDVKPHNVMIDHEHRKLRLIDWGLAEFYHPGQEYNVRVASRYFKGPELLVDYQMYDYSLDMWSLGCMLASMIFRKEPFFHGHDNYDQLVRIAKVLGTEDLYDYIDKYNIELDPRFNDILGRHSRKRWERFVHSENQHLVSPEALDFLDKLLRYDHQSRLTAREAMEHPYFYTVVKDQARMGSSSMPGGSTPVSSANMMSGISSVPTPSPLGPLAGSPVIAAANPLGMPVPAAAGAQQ
T6 sequence (Q15418 whole entry): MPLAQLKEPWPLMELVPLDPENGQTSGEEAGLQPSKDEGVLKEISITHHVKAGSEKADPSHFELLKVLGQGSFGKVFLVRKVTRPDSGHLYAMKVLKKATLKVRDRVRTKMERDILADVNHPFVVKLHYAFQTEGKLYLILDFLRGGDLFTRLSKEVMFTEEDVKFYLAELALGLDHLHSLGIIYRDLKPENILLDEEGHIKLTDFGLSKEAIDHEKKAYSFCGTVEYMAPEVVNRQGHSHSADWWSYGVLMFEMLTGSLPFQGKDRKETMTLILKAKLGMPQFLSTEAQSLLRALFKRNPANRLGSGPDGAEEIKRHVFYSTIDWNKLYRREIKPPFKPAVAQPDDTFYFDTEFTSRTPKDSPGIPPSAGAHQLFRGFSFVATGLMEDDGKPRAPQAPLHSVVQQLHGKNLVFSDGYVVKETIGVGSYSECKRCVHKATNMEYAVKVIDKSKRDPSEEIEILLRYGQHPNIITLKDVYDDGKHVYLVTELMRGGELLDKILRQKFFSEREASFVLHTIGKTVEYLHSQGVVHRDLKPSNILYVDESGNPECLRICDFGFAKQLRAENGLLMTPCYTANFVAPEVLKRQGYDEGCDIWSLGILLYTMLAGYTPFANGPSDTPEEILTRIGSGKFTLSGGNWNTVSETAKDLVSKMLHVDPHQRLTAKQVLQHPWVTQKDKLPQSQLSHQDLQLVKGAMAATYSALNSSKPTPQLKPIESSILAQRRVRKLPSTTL

SMILES | remaining activity at 1 µM [1] | remaining activity at 1 µM [2] | remaining activity at 1 µM [3] | remaining activity at 1 µM [4] | remaining activity at 1 µM [5] | remaining activity at 1 µM [6] | remaining activity at 1 µM [7] | remaining activity at 1 µM [8] | remaining activity at 1 µM [9] | residual activity ([1]; 1 μM) | residual activity ([2]; 1 μM) | residual activity ([3]; 1 μM) | residual activity ([4]; 1 μM) | residual activity ([5]; 1 μM) | residual activity ([6]; 1 μM) | residual activity ([7]; 1 μM) | residual activity ([8]; 1 μM) | residual activity ([9]; 1 μM)
COCCOc1ccc(-c2cn(-c3ccccc3)c3nc[nH]c(=O)c23)cc1 [DMX-5804, 5-[4-(2-methoxy-ethoxy)-phenyl]-7-phenyl-3,7-dihydro-pyrrolo[2,3-d]pyrimidin-4-one] | 77% | 94% | 104% | 110% | 102% | 86% | 93% | 104% | 74% |  |  |  |  |  |  |  |  | 
Oc1ncnc2c1c(-c1ccccc1)cn2-c1ccccc1 [F1386-0303, 5,7-diphenyl-7H-pyrrolo[2,3-d]pyrimidin-4-ol] | 98% | 107% | 77% | 99% | 103% | 89% | 114% | 101% | 89% |  |  |  |  |  |  |  |  | 
Nc1ncc(C(=O)NC2CN(C(=O)C3CC3)C2)c2ccc(-c3cccc(F)c3)nc12 [GNE-495] |  |  |  |  |  |  |  |  |  | 105% | 65% | 93% | 100% | 68% | 65% | 62% | 55% | 68%
O=C1Nc2ccc(I)cc2/C1=C/c1cc(Br)c(O)c(Br)c1 [GW5074] | 19% | 88% | 72% | 85% | 66% | 32% | 49% | 91% | 51% |  |  |  |  |  |  |  |  | 
O=C1Cc2c([nH]c3ccc(Br)cc23)-c2ccccc2N1 [Kenpaullone] | 72% | 104% | 90% | 94% | 100% | 84% |  | 101% |  |  |  |  |  |  |  |  |  | 
